{"source": "patent US20100104659A1", "about": "“BENZOPYRANOPYRAZOLES” (priority 2006, published 2010)", "note": "Counter-ions that a name gives are not always drawn."}
{"test_system": "not given", "assay": "not given", "conditions": "not given", "units": {"melting point": "°C"}}
{"smiles": "CN(C)C(=O)N1N=C2c3cc(F)ccc3OC[C@@H]2[C@@H]1c1ccccc1", "note": "(racemic) [Example 7, (3RS,3aRS)-8-Fluoro-3-phenyl-3a,4-dihydro-3H-chromeno[4,3-c]pyrazole-2-carboxylic acid dimethylamide]", "melting point": 117}
{"smiles": "CN(CCN)C(=O)N1N=C2c3cc(F)ccc3OC[C@@H]2[C@@H]1c1ccccc1", "note": "(stereo in doubt) [Example 18, (3RS,3aRS)-8-Fluoro-3-phenyl-3a,4-dihydro-3H-chromeno[4,3-c]pyrazole-2-carboxylic acid (2-amino-ethyl)-methyl-amide]", "melting point": 113.2}
{"smiles": "CC(C)N(C)C(=O)N1N=C2c3cc(F)ccc3OC[C@@H]2[C@@H]1c1ccccc1", "note": "(racemic) [Example 13, (3RS,3aRS)-8-Fluoro-3-phenyl-3a,4-dihydro-3H-chromeno[4,3-c]pyrazole-2-carboxylic acid isopropyl-methyl-amide]", "melting point": "102 to 105"}
{"smiles": "CN(C)CCN(C)C(=O)N1N=C2c3cc(F)ccc3OC[C@@H]2[C@@H]1c1ccccc1", "note": "(racemic) (as salt: salt) [Example 19, (3RS,3aRS)-8-Fluoro-3-phenyl-3a,4-dihydro-3H-chromeno[4,3-c]pyrazole-2-carboxylic acid (2-dimethylamino-ethyl)-methyl-amide]", "melting point": "248 to 250"}
{"smiles": "CN(C)CCCN(C)C(=O)N1N=C2c3cc(F)ccc3OC[C@@H]2[C@@H]1c1cccc(O)c1", "note": "(racemic) (as salt: salt) [Example 6, (3RS,3aRS)-8-Fluoro-3-(3-hydroxy-phenyl)-3a,4-dihydro-3H-chromeno[4,3-c]pyrazole-2-carboxylic acid (3-dimethylamino-propyl)-methyl-amide]", "melting point": 145}
{"test_system": "RKO human colon adenocarcinoma cells (RKOp27 subclone), proliferating", "assay": "Alamar Blue cell viability assay, RKO p27 uninduced (proliferating)", "conditions": "RKOp27, 72 h, read-out: −log EC50 [mol/l] RKO p27 uninduced (proliferating), anti-proliferative/cytotoxic activity (converted)", "units": {"EC50": "nM"}, "experimental": "The anti-proliferative/cytotoxic activity of the compounds described herein can be tested on subclones of RKO human colon adenocarcinoma cells (Schmidt et al., Oncogene 19, 2423-2429; 2000) using the Alamar Blue cell viability assay (described in O'Brien et al. Eur J Biochem 267, 5421-5426, 2000). The compounds are dissolved as 10 mM solutions in DMSO and subsequently diluted in semi-logarithmic steps. DMSO dilutions are further diluted 1:100 into Dulbecco's modified Eagle's medium (DMEM) containing 10% fetal calf serum to a final concentration twice as much as the final concentration in the test. RKO subclones are seeded into 96 well flat bottom plates at a density of 4000 cells per well in a volume of 50 μl per well. 24 hours after seeding the 50 μl each of the compound dilutions in DMEM medium are added into each well of the 96 well plate. Each compound dilution is tested as triplicates. Wells containing untreated control cells are filled with 50 μl DMEM medium containing 1% DMSO. The cells are then incubated with the substances for 72 hours at 37° C. in a humidified atmosphere containing 5% carbon dioxide. To determine the viability of the cells, 10 μl of an Alamar Blue solution (Biosource) are added and the fluorescence is measured at an extinction of 544 nm and an emission of 590 nm. For the calculation of the cell viability the emission value from untreated cells is set as 100% viability and the emission rates of treated cells are set in relation to the values of untreated cells. Viabilities are expressed as % values. The Graphpad Prism program (GraphPad Software, Inc) is used for the calculation of EC50 values for anti-proliferative/cytotoxic activity out of the obtained dose-response curves.\nEach compound dilution is tested as triplicates. Wells containing untreated control cells are filled with 50 μl DMEM medium containing 1% DMSO. The cells are then incubated with the substances for 72 hours at 37° C. in a humidified atmosphere containing 5% carbon dioxide. To determine the viability of the cells, 10 μl of an Alamar Blue solution (Biosource) are added and the fluorescence is measured at an extinction of 544 nm and an emission of 590 nm. For the calculation of the cell viability the emission value from untreated cells is set as 100% viability and the emission rates of treated cells are set in relation to the values of untreated cells. Viabilities are expressed as % values. The Graphpad Prism program is used for the calculation of EC50 values out of the obtained dose-response curves. Viability is compared of proliferating cells grown in the absence of the inducer Ponasterone A, versus viability of cells arrested by the expression of ectopic p27Kip1 induced by Ponasterone A."}
{"smiles": "CN(C)C(=O)N1N=C2c3cc(F)ccc3OC[C@@H]2[C@@H]1c1ccccc1", "note": "(racemic) [Example 7, (3RS,3aRS)-8-Fluoro-3-phenyl-3a,4-dihydro-3H-chromeno[4,3-c]pyrazole-2-carboxylic acid dimethylamide]", "EC50": "100 to 1000"}
{"smiles": "CN(CCN)C(=O)N1N=C2c3cc(F)ccc3OC[C@@H]2[C@@H]1c1ccccc1", "note": "(stereo in doubt) [Example 18, (3RS,3aRS)-8-Fluoro-3-phenyl-3a,4-dihydro-3H-chromeno[4,3-c]pyrazole-2-carboxylic acid (2-amino-ethyl)-methyl-amide]", "EC50": "≤ 100"}
{"smiles": "CC1CCN(CCCN(C)C(=O)N2N=C3c4cc(F)ccc4OC[C@H]3[C@H]2c2ccccc2)CC1", "note": "(racemic) [Example 66, (3SR,3aSR)-8-Fluoro-3-phenyl-3a,4-dihydro-3H-chromeno[4,3-c]pyrazole-2-carboxylic acid methyl-[3-(4-methyl-piperidin-1-yl)-propyl]-amide]", "EC50": "≤ 100"}
{"smiles": "CCN(C)CCCN(C)C(=O)N1N=C2c3cc(F)ccc3OC[C@H]2[C@H]1c1ccccc1", "note": "(racemic) [Example 55, (3SR,3aSR)-8-Fluoro-3-phenyl-3a,4-dihydro-3H-chromeno[4,3-c]pyrazole-2-carboxylic acid [3-(ethyl-methyl-amino)-propyl]-methyl-amide]", "EC50": "≤ 100"}
{"smiles": "CN(C)CCN(C)C(=O)N1N=C2c3cc(F)ccc3OC[C@@H]2[C@@H]1c1cccc(O)c1", "note": "(racemic) [Example 4, (3RS,3aRS)-8-Fluoro-3-(3-hydroxy-phenyl)-3a,4-dihydro-3H-chromeno[4,3-c]pyrazole-2-carboxylic acid (2-dimethylamino-ethyl)-methyl-amide]", "EC50": "≤ 100"}
{"smiles": "CC(C)CN(C)C(=O)N1N=C2c3cc(F)ccc3OC[C@@H]2[C@@H]1c1ccccc1", "note": "(racemic) [Example 12, (3RS,3aRS)-8-Fluoro-3-phenyl-3a,4-dihydro-3H-chromeno[4,3-c]pyrazole-2-carboxylic acid isobutyl-methyl-amide]", "EC50": "100 to 1000"}
{"smiles": "CN1CCC(N(C(=O)N2NC3c4cc(F)ccc4OC[C@H]3[C@@H]2c2ccccc2)C2CC2)CC1", "note": "(mixture of isomers) [Example 15, (3RS,3aRS)-8-Fluoro-3-phenyl-1,3a,4,9b-tetrahydro-3H-chromeno[4,3-c]pyrazole-2-carboxylic acid cyclopropyl-(1-methyl-piperidin-4-yl)-amide]", "EC50": "≤ 100"}
{"smiles": "CN(CCNC(C)(C)C)C(=O)N1N=C2c3cc(F)ccc3OC[C@H]2[C@H]1c1ccccc1", "note": "(racemic) [Example 40, (3SR,3aSR)-8-Fluoro-3-phenyl-3a,4-dihydro-3H-chromeno[4,3-c]pyrazole-2-carboxylic acid (2-tert-butylamino-ethyl)-methyl-amide]", "EC50": "≤ 100"}
